The values that follow come from patent US9480278B2, “Diet for altering the nutrient composition of feeder insects” (Mark Finke LLC, priority 2012, dated 2016).

Like-named read-outs stand apart in the source and are kept apart here.

The subject of data set [1] is feeder insects.
The nature of a further data set: in vivo. Conditions: cricket.
The subject of data set [2] is feeder insects. Description: Lutein and zeaxanthin in diet versus lutein and zeaxanthin in feeder insect. The settings on record: 64.9 mg/kg lutein in diet. The protocol: (§1) An experiment was performed to determine the levels of lutein and zeaxanthin in a feeder insect diet that would produce lutein and zeaxanthin levels in a feeder insect similar to those found in the wild.

Assay in data set [3]: as above
The settings on record: cricket, whole feeder insect (dry matter), oral. The protocol:
as §1

The next data set concerns mealworms. Description: Vitamin E content of mealworms fed a diet containing added vitamin E. It is filed as in vivo. The protocol:
(§2) There is a direct relationship between the vitamin E content in the diet and the vitamin E content in the feeder insect. Since the feeder insects were fasted prior to analysis, and the results were collected when the feeder insects were grown to approximately two-thirds of adult-size within approximately 21 days after introduction of the diet, the vitamin E content in the feeder insect is a result of a change in the composition of the tissues of the feeder insect, rather than the consequence of food in the gut of the feeder insect. Regression analysis was performed on the data to establish a best-fit line defined by an equation FI=0.241*D+33.5, where FI is the vitamin E content of feeder insect and D is the vitamin E content in the feeder insect diet. According to the present inventive method, with this established equation, a diet, fed to the feeder insect, having a vitamin E content of between approximately 69 and approximately 691 IU per kilogram produces the targeted 50 to 200 IU of vitamin E per kilogram dry matter in the feeder insect, respectively.

Data set [4] deals with feeder insects. Put plainly: Vitamin E level in feeder insects fed diets with varying levels of vitamin E. It is filed as in vivo, crickets. The settings on record: approximately 21 days, fasted 24 to 36 hours. The protocol:
Captive insectivores fed with current methods have been shown in past studies to be deficient in vitamin E. Feeder insects which contain between approximately 50 and approximately 200 International Units (“IU”) of vitamin E per kilogram dry matter provide health benefits to captive insectivores. All references in this disclosure to concentrations in feeder insects will be based on dry matter measurements, unless otherwise specified. Experiments were performed to determine the levels of vitamin E in a feeder insect diet that would produce in the feeder insect the targeted levels between 50 and 200 IU of vitamin E per kilogram dry matter for consumption by an insectivore. In the experiments, feeder insects were fasted for 24 to 36 hours prior to analysis to ensure that food in the gut was eliminated completely so as not to affect the results. The feeder insects were provided the diet containing varying levels of vitamin E. Vitamin E analysis was then performed using the method as described by Cort, et. al., Vitamin E Content of Feedstuffs Determined by High-Performance Liquid Chromatography Fluorescence, JOURNAL OF AGRICULTURAL AND FOOD CHEMISTRY, Vol. 31, 1330-1333 (1983).
as §2, with “According to the present inventive method, with this established equation, a diet, fed to the feeder insect, having a vitamin E content of between approximately 69 and approximately 691 IU per kilogram produces the targeted 50 to 200 IU of vitamin E per kilogram dry matter in the feeder insect, respectively.” left out

The mark [5] stands for this setting: 3 milligrams of beta-carotene per kilogram of feeder insect diet.
Where [6] appears, read: 65 milligrams of beta-carotene per kilogram of feeder insect diet.

For the compound `CC1=C(/C=C/C(C)=C/C=C/C(C)=C/C=C/C=C(C)/C=C/C=C(C)/C=C/C2=C(C)CCCC2(C)C)C(C)(C)CCC1` [Beta-carotene, beta-carotene], the results for the “share of poultry's vitamin A requirement, by regression” value in the data set on feeder insects [1] (setting [5]) and in the data set on feeder insects [1] (setting [6]) were “approximately 78%” and “approximately 1600%”, respectively. Besides, the “share of the rat's vitamin A requirement, by regression” value in the data set with feeder insects [1] (setting [5]) is listed as “approximately 51%”; in the data set with feeder insects [1] (setting [6]) it was “approximately 1000%”. Further, the “vitamin A yielded in feeder insect, by regression” value with feeder insects [1] (setting [5]) is 1,173 IU of vitamin A per kilogram dry matter; in the data set with feeder insects [1] (setting [6]) it was 23,000 IU of vitamin A per kilogram dry matter. The concentration at 21 days was found to be 33.3 ng/g in “in vivo” (0.2 mg/kg diet, Beta-carotene in Feeder Insect, 0.2 mg/kg beta-carotene in diet); 33.3 ng/g in the data set “in vivo” (0.3 mg/kg diet, Beta-carotene in Feeder Insect, 0.3 mg/kg beta-carotene in diet); 655 ng/g in the data set “in vivo” (3 mg beta-carotene per kg diet, beta-carotene in feeder insect by regression FI=219.2×D-2.92, 3 milligrams of beta-carotene per kilogram of feeder insect diet); 2720 ng/g in “in vivo” (11.7 mg/kg diet, Beta-carotene in Feeder Insect, 11.7 mg/kg beta-carotene in diet); 3230 ng/g in the data set “in vivo” (15.3 mg/kg diet, Beta-carotene in Feeder Insect, 15.3 mg/kg beta-carotene in diet); 14300 ng/g in the data set “in vivo” (65 mg beta-carotene per kg diet, beta-carotene in feeder insect by regression FI=219.2×D-2.92, 65 milligrams of beta-carotene per kilogram of feeder insect diet). Further, the concentration at 21 days in “in vivo” (beta-carotene in feeder insect by regression from Table C, diet with approximately 0.3 to approximately 1,496.4 milligrams of beta-carotene per kilogram) fell in the range of 62.8 to 328000 ng/g; in the data set “in vivo” (beta-carotene in feeder insect by regression from Table C, diet with approximately 68.4 to approximately 365 milligrams of beta-carotene per kilogram), 15000 to 80000 ng/g.

On to `CC1=C[C@H](O)CC(C)(C)[C@H]1/C=C/C(C)=C/C=C/C(C)=C/C=C/C=C(C)/C=C/C=C(C)/C=C/C1=C(C)C[C@@H](O)CC1(C)C` [Lutein, lutein], for which the Lutein in Feeder Insect in the data set on feeder insects [2] came to 800 µg/kg dry matter. Besides, the concentration at 21 days in data set [3] (11.6 mg/kg diet) is 33 ng/g; in data set [3] (13.3 mg/kg diet), 333 ng/g; in data set [3] (193.6 mg/kg diet), 11300 ng/g.

Consider vitamin E, for which, in the data set on mealworms, the “vitamin E content compared with mealworms fed a control diet” value is on record as “more vitamin E”. For the same compound, the “Vitamin E in Feeder Insect” value in the data set on feeder insects [4] (31 IU/kg vitamin E in diet) stood at 38.7 IU/kg dry matter; in the data set with feeder insects [4] (210 IU/kg vitamin E in diet), 89.2 IU/kg dry matter; with feeder insects [4] (360 IU/kg vitamin E in diet), 117.7 IU/kg dry matter.
